We go through eight compounds from patent US20200017467A1, “NOVEL TRIAZOLE DERIVATIVES” (BAYER CROPSCIENCE AKTIENGESELLSCHAFT, priority 2017, published 2020).

The nature of data set [1]: Log P by HPLC on reversed phase columns (EEC directive 79/831 Annex V.A8). The format is physicochemical. Conditions: reversed phase HPLC columns; method [a]: LC-UV, acidic range, 0.1% formic acid in water and acetonitrile; compounds of formula (I). On the procedure:
Log P values: Measurement of Log P values was performed according to EEC directive 79/831 Annex V.A8 by HPLC (High Performance Liquid Chromatography) on reversed phase columns with the following methods: • ^[a] Log P value is determined by measurement of LC-UV, in an acidic range, with 0.1% formic acid in water and acetonitrile as eluent (linear gradient from 10% acetonitrile to 95% acetonitrile). • ^[b] Log P value is determined by measurement of LC-UV, in a neutral range, with 0.001 molar ammonium acetate solution in water and acetonitrile as eluent (linear gradient from 10% acetonitrile to 95% acetonitrile). • ^[c] Log P value is determined by measurement of LC-UV, in an acidic range, with 0.1% phosphoric acid and acetonitrile as eluent (linear gradient from 10% acetonitrile to 95% acetonitrile). If more than one Log P value is available within the same method, all the values are given and separated by “+”. Calibration was done with straight-chain alkan2-ones (with 3 to 16 carbon atoms) with known Log P values (measurement of Log P values using retention times with linear interpolation between successive alkanones). Lambda-max-values were determined using UV-spectra from 200 nm to 400 nm and the peak values of the chromatographic signals.

A further data set deals with Septoria tritici. Briefly: Example F-B: in vivo curative Septoria tritici test (wheat). Conditions: Zymoseptoria tritici, 504 h, sprayed 48 hours after inoculation, evaluated 21 days after inoculation, read-out: Efficacy in % Example F-B. The method, then: Example F: In Vivo Septoria tritici Test (Wheat); Comparison of Pyridinyloxy-Pyridyl Compounds According to the Invention Vs. Compounds Known from WO-A 2010/146116 [table] To produce a suitable preparation of active compound, 1 part by weight of active compound or active compound combination is mixed with the stated amounts of solvent and emulsifier, and the concentrate is diluted with water to the desired concentration. Example F-B: In Vivo Curative Septoria tritici Test (Wheat) To test for curative activity, young plants are inoculated with a spore suspension of Septoria tritici and remain for 48 hours in an incubation cabinet at a temperature of approximately 20° C. and a relative atmospheric humidity of approximately 100%. 48 hours after the incubation, the plants are sprayed with the preparation of active compound or active compound combination at the stated rate of application. After application the plants remain for 60 hours at a temperature of approximately 15° C. in a translucent incubation cabinet at a relative atmospheric humidity of approximately 100%. Afterwards, the plants are placed in the greenhouse at a temperature of approximately 15° C. and a relative atmospheric humidity of approximately 80%. The test is evaluated 21 days after the inoculation. 0% means an efficacy which corresponds to that of the untreated control, while an efficacy of 100% means that no disease is observed.

The next data set relates to Sphaerotheca fuliginea. In words: In vivo preventive test on Sphaerotheca fuliginea (powdery mildew on cucurbits). Conditions: Podosphaera fuliginea, 360 h; 500 ppm of active ingredient; gherkin, preventive spray, evaluated 15 days after inoculation; read-out: efficacy. On the procedure: Example C: In Vivo Preventive Test on Sphaerotheca fuliginea (Powdery Mildew on Cucurbits) [table] The active ingredients were made soluble and homogenized in a mixture of dimethyl sulfoxide/acetone//Tween® 80 and then diluted in water to the desired concentration. Young plants of gherkin were treated by spraying the active ingredient prepared as described above. Control plants were treated only with an aqueous solution of acetone/dimethyl sulfoxide/Tween® 80. After 24 hours, the plants were contaminated by spraying the leaves with an aqueous suspension of Sphaerotheca fuliginea spores. The contaminated gherkin plants were incubated for 72 hours at 18° C. and at 100% relative humidity and then for 12 days at 20° C. and at 70-80% relative humidity. The test was evaluated 15 days after the inoculation. 0% means an efficacy which corresponds to that of the control plants while an efficacy of 100% means that no disease was observed.

Consider `OC(Cn1cncn1)c1ccc(Oc2ccc(C(F)(F)F)nc2)nc1C(F)(F)F` (stereo not drawn) [I-09], for which the chromatographic logP (usually lipophilicity estimated from chromatographic retention) in data set [1] was determined as 2.2. Besides, the pest or weed control at 500 ppm is 86% with Septoria tritici and 90 to 100% with Sphaerotheca fuliginea.
Taken in the same sequence, the figures for `OC(Cn1cncn1)c1cnc(Oc2ccc(Br)nc2)cc1C(F)(F)F` (stereo not drawn) [I-13] were 2.13, 60% and 90 to 100%.
Taken in the same sequence, the figures for `CC(O)(Cn1cncn1)c1ccc(Oc2ccc(C(F)(F)F)nc2)nc1C(F)(F)F` (stereo not drawn) [I-02, 1-(1,2,4-triazol-1-yl)-2-[2-(trifluoromethyl)-6-[[6-(trifluoromethyl)-3-pyridyl]oxy]-3-pyridyl]propan-2-ol] were 2.56, 100% and 90 to 100%.
Taken in the same sequence, the figures for `CC(O)(Cn1cncn1)c1cnc(Oc2ccc(Cl)nc2)cc1C(F)(F)F` (stereo not drawn) [I-06, 2-[6-[(6-chloro-3-pyridyl)oxy]-4-(trifluoromethyl)-3-pyridyl]-1-(1,2,4-triazol-1-yl)propan-2-ol] were 2.18, 100% and 90 to 100%.
In data set [1], `CC(O)(Cn1cncn1)c1ccc(Oc2ccc(Br)nc2)nc1C(F)(F)F` (stereo not drawn) [I-01, 2-[6-[(6-bromo-3-pyridyl)oxy]-2-(trifluoromethyl)-3-pyridyl]-1-(1,2,4-triazol-1-yl)propan-2-ol] returned a chromatographic logP of 2.25. Also, the pest or weed control at 500 ppm in the data set on Septoria tritici was 93%; in the data set with Sphaerotheca fuliginea, 90 to 100%.
Taken in the same sequence, the figures for `CC(O)(Cn1cncn1)c1cnc(Oc2ccc(C(F)(F)F)nc2)cc1C(F)(F)F` (stereo not drawn) [I-04] were 2.53, 100% and 90 to 100%.
The matching figures for `CC(O)(Cn1cncn1)c1ccc(Oc2ccc(Cl)nc2)nc1C(F)(F)F` (stereo not drawn) [I-05]: 2.21, 100% and 90 to 100%.
On to `CC(O)(Cn1cncn1)c1cnc(Oc2ccc(Br)nc2)cc1C(F)(F)F` (stereo not drawn) [I-07], for which the chromatographic logP in data set [1] came to 2.3. The pest or weed control at 500 ppm in the data set with Septoria tritici is 70%; with Sphaerotheca fuliginea it was 90 to 100%.
